Reference: article PMC9405847, “Design, Synthesis and Pharmacological Evaluation of Novel Conformationally Restricted N-arylpiperazine Derivatives Characterized as D2/D3 Receptor Ligands, Candidates for the Treatment of Neurodegenerative Diseases” (Biomolecules, 2022)

Legend:
[1] = target: human D3 dopaminergic receptor (D3R) (Homo sapiens, UniProt P35462); assay: Competition binding of [3H]-spiperone and GTP-shift (functional binding) in membranes of recombinant Chem-1 cells; details: for IC50: D3R, [3H]-spiperone 0.5 nM, 95% confidence interval in parentheses; for Na+-Shift (II/I) D3R: IC50 in NaCl + GTP (II) divided by IC50 in MgCl2 + CaCl2 (I); for Intrinsic Efficacy at D3R: classified from the Na+-shift (GTP-shift assay)
human D3 dopaminergic receptor (D3R), sequence (P35462 whole entry): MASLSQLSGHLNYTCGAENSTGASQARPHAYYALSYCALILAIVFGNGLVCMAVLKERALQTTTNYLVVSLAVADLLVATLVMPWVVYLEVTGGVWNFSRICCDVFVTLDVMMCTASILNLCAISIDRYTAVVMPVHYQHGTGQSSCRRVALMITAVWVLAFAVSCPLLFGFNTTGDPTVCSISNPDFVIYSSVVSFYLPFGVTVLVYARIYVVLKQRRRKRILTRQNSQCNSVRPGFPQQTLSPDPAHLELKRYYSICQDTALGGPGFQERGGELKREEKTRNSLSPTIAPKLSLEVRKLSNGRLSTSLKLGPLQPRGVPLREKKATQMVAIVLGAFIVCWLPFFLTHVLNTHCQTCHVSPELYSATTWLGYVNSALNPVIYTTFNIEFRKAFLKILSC

D2R = target: T1, D2R (Rattus norvegicus, UniProt P61169); assay: Competition binding of [3H]-YM-09151-2 to D2-like receptors in rat striatal membranes
T1 construct: from tissue; host or cells: striatum of adult male Wistar rats
T1 sequence (P61169 whole entry): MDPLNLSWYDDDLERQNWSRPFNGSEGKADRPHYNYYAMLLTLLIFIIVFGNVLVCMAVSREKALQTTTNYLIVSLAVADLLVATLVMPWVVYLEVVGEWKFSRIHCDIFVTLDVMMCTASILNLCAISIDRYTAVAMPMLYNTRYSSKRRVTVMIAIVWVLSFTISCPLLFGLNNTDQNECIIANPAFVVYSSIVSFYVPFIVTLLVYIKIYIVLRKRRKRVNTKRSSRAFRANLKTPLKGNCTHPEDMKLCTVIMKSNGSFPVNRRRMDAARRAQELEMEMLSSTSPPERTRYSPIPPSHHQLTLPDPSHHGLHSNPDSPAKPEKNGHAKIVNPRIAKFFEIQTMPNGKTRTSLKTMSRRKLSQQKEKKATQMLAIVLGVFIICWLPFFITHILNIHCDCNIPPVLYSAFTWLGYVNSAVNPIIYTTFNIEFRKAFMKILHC
Method: Finally, to evaluate the selectivity of the substances, classic binding to D2-like receptors was performed using rat striatal membranes. Adult male Wistar rats (2.5–3 months) were killed by decapitation, their brains were immediately removed on ice and the striatum was dissected and stored in liquid nitrogen until use. This procedure was approved by the Institutional Ethical Committee for Animal Care from the Federal University of Rio de Janeiro (CEUA no. 052/19; 30 April 2019). The striatum was homogenized in a motorized Potter-type apparatus with a Teflon piston at 4 °C at 20 volumes per gram of tissue in ice-cold 50 mM Tris-HCl buffer (pH 7.4) containing 8 mM MgCl2 and 5 mM ethylenediaminetetraacetic acid (EDTA). The resulting suspension was ultracentrifuged at 48,000× g at 4 °C for 20 min. The pellet was resuspended in 20 volumes of the same buffer and incubated at 37 °C for 10 min to remove endogenous neurotransmitters. This suspension was cooled and ultracentrifuged at 48,000× g for 20 min at 4 °C [46]. The final pellet was resuspended and stored in liquid nitrogen until use.
In a medium containing the antagonist radioligand [^3H]-YM-09151-2 0.1 nM, 120 mM NaCl, 5 mM KCl, 5 mM MgCl2, 1.5 mM CaCl2, 1 mM EDTA and 50 mM Tris-HCl (pH 7.2 a 25 °C), 50 µg of […] striatum membrane was incubated in the dark (sodium light) for 60 min at 37 °C. Nonspecific binding was estimated using sulpiride (30 µM).

[2] = IC50 (MgCl2 + CaCl2), medium I: 5 mM MgCl2 and 1.5 mM CaCl2
[3] = IC50 (NaCl + GTP), medium II: 154 mM NaCl and 1 mM GTP

Row | Structure (SMILES) | IC50 [1, 2] | IC50 [1, 3] | Na+-Shift (II/I) D3R [1] | Intrinsic Efficacy at D3R [1] | Ki (D2R) | melting point
1 | Cc1cc2c(cc1S(=O)(=O)Nc1ccc(CN3CCN(c4ccccc4)CC3)cc1)OCO2 [Compound 5a, 6-Methyl-N-(4-((4-phenylpiperazin-1-yl)methyl)phenyl) Benzo [d] [1,3] Dioxole-5-sulfonamide] | 1100 nM | 1200 nM | 1.1 | antagonist | 440 nM | 154 to 156 °C
2 | COc1ccccc1N1CCN(Cc2ccc(NS(=O)(=O)c3cc4c(cc3C)OCO4)cc2)CC1 [Compound 5b, N-(4-((4-(2-Methoxyphenyl)piperazin-1-yl)methyl)phenyl)-6-methylbenzo [d] [1,3] Dioxole-5-sulfonamide] | 760 nM | 290 nM | 0.4 | weak inverse agonist | 80 nM | 183 to 185 °C
3 | Cc1cc2c(cc1S(=O)(=O)Nc1ccc(CN3CCN(c4cccc(Cl)c4Cl)CC3)cc1)OCO2 [Compound 5c, N-(4-((4-(2,3-Dichlorophenyl)piperazin-1-yl)methyl)phenyl)-6-methylbenzo [d] [1,3] Dioxole-5-sulfonamide] | 750 nM | 780 nM | 1 | antagonist | 400 nM | 192 to 194 °C

Next, values leading:

Row | IC50 [1, 2] | IC50 [1, 3] | Na+-Shift (II/I) D3R [1] | Intrinsic Efficacy at D3R [1] | Ki (D2R) | melting point | Structure (SMILES)
4 | 420 nM | 990 nM | 2.4 | partial agonist | 820 nM | 178 to 180 °C | O=S(=O)(Nc1ccc(CN2CCN(c3ccccc3)CC2)cc1)c1ccc2c(c1)OCO2 [Compound 5d, N-(4-((4-Phenylpiperazin-1-yl) Methyl) Phenyl) Benzo [d] [1,3] Dioxole-5-Sulfonamide]
5 | 230 nM | 200 nM | 0.9 | antagonist | 100 nM | 149 to 151 °C | COc1ccccc1N1CCN(Cc2ccc(NS(=O)(=O)c3ccc4c(c3)OCO4)cc2)CC1 [Compound 5e, N-(4-((4-(2-Methoxyphenyl)piperazin-1-yl)methyl)phenyl) Benzo [d] [1,3] Dioxole-5-sulfonamide]
6 | 110 nM | 200 nM | 1.8 | partial agonist | 200 nM | 163 to 166 °C | O=S(=O)(Nc1ccc(CN2CCN(c3cccc(Cl)c3Cl)CC2)cc1)c1ccc2c(c1)OCO2 [Compound 5f, N-(4-((4-(2,3-Dichlorophenyl)piperazin-1-yl)methyl)phenyl) Benzo [d] [1,3] Dioxole-5-sulfonamide]
